Converted amounts (≈) assume the structure as drawn.
How the values were obtained:
Bacillus subtilis [1] = assay: Antibacterial activity against Bacillus subtilis assessed as diameter of inhibition zone measured after 24 hrs by agar well diffusion method; format: functional
Escherichia coli [2] = assay: Antibacterial activity against Escherichia coli assessed as diameter of inhibition zone measured after 24 hrs by agar well diffusion method; format: functional
Pseudomonas aeruginosa [3] = assay: Antibacterial activity against Pseudomonas aeruginosa assessed as diameter of inhibition zone measured after 24 hrs by agar well diffusion method; format: functional
[4] = Cytotoxicity against rat PC12 cells after 24 hrs by MTT assay; format: cell-based, PC-12; conditions: for MNTC at 24 h: read-out: MNCC
[5] = Cytotoxicity against rat PC12 cells assessed as cell viability at MNTC after 24 hrs by MTT assay relative to control; format: cell-based, PC-12; conditions: read-out: Activity
[6] = Cytotoxicity against rat PC12 cells assessed as cell viability at CC50 after 24 hrs by MTT assay relative to control; format: cell-based, PC-12; conditions: read-out: Activity
PC-12 [7] = assay: Neuroprotective activity against H2O2-induced cytotoxicity in rat PC12 cells assessed as increase in cell viability pretreated for 24 hrs followed by H2O2 addition by MTT assay; format: functional, cell-based
PC-12 [8] = assay: Neuroprotective activity against H2O2-induced cytotoxicity in rat PC12 cells assessed as cell viability at EC50 pretreated for 24 hrs followed by H2O2 addition by MTT assay relative to control; format: functional
Staphylococcus aureus [9] = assay: Antibacterial activity against Staphylococcus aureus assessed as diameter of inhibition zone measured after 24 hrs by agar well diffusion method; format: functional
Staphylococcus aureus [10] = assay: Antibacterial activity against Staphylococcus aureus after 24 hrs by UV-vis spectrophotometric method; format: functional
Bacillus subtilis [11] = assay: Antibacterial activity against Bacillus subtilis after 24 hrs by UV-vis spectrophotometric method; format: functional
Escherichia coli [12] = assay: Antibacterial activity against Escherichia coli after 24 hrs by UV-vis spectrophotometric method; format: functional
Pseudomonas aeruginosa [13] = assay: Antibacterial activity against Pseudomonas aeruginosa after 24 hrs by UV-vis spectrophotometric method; format: functional

| Compound | diameter of the inhibition zone (DIZ) (Bacillus subtilis [1]) [mm] | diameter of the inhibition zone (DIZ) (Escherichia coli [2]) [mm] | diameter of the inhibition zone (DIZ) (Pseudomonas aeruginosa [3]) [mm] | CC50 at 24 h [4] [µg/mL] | MNTC at 24 h [4] [µg/mL] | viability at 24 h [5] [%] | viability at 24 h [6] [%] | Activity (PC-12 [7]) | EC50 (PC-12 [7]) [µg/mL] | Activity (PC-12 [8]) [%] | diameter of the inhibition zone (DIZ) (Staphylococcus aureus [9]) [mm] | MIC (Staphylococcus aureus [10]) [µg/mL] | MIC (Bacillus subtilis [11]) [µg/mL] | MIC (Escherichia coli [12]) [µg/mL] | MIC (Pseudomonas aeruginosa [13]) [µg/mL] |
| --- | --- | --- | --- | --- | --- | --- | --- | --- | --- | --- | --- | --- | --- | --- | --- |
| Cc1ccc(C#N)c(N2CCN(CC#CCOC(=O)c3sc4ncnc(N5CCCCC5)c4c3C)CC2)c1 | 13 | 15 | 14 | 114 (≈ 216 µM) | 96 | 98.2 | 49 | Dose-dependent effect | 38.2 (≈ 72.2 µM) | 76.04 | 13 | 0.122 (≈ 0.231 µM) | 0.0312 (≈ 0.059 µM) | 0.0144 (≈ 0.0272 µM) | 0.0624 (≈ 0.118 µM) |
| Cc1c(C(=O)OCC#CCN2CCN(c3ccc(Br)cc3C#N)CC2)sc2ncnc(N3CCOCC3)c12 | 12 | 13 | 12 | 122 (≈ 205 µM) | 100 | 99.6 | 49 | Dose-dependent effect | 32.3 (≈ 54.2 µM) | 75.44 | 10 | 0.526 (≈ 0.883 µM) | 0.0628 (≈ 0.105 µM) | 0.0324 (≈ 0.0544 µM) | 0.0128 (≈ 0.0215 µM) |
| Cc1c(C(=O)OCC#CCN2CCN(c3cc(C4CC4)ccc3C#N)CC2)sc2ncnc(N3CCOCC3)c12 | 10 | 12 | 13 | 198 (≈ 356 µM) | 150 | 99.1 | 49.9 | Dose-dependent effect | 12.4 (≈ 22.3 µM) | 75.15 | 13 | 0.312 (≈ 0.56 µM) | 0.124 (≈ 0.223 µM) | 0.186 (≈ 0.334 µM) | 0.0634 (≈ 0.114 µM) |
| Cc1c(-c2nnc(-c3ccc(Cl)cc3)o2)sc2ncnc(N3CCOCC3)c12 | 18 | 13 | 18 | 168 (≈ 406 µM) | 120 | 98.3 | 51.1 | Dose-dependent effect | 28.2 (≈ 68 µM) | 77.18 | 13 | 0.0136 (≈ 0.0329 µM) | 0.0144 (≈ 0.0348 µM) | 0.0172 (≈ 0.0416 µM) | 0.0144 (≈ 0.0348 µM) |
| COc1ccc(N2CCN(CC#CCOC(=O)c3sc4ncnc(N5CCOCC5)c4c3C)CC2)cc1 | 12 | 12 | 14 | 144 (≈ 276 µM) | 60 | 98.1 | 49.1 | Dose-dependent effect | 36.2 (≈ 69.3 µM) | 74.89 | 8 | 0.062 (≈ 0.119 µM) | 0.062 (≈ 0.119 µM) | 0.12 (≈ 0.23 µM) | 0.062 (≈ 0.119 µM) |
| COc1ccc(-c2nnc(-c3sc4ncnc(N5CCOCC5)c4c3C)o2)cc1 | 13 | 12 | 16 | 140 (≈ 342 µM) | 120 | 98.3 | 51.9 | Dose-dependent effect | 28.2 (≈ 68.8 µM) | 75.15 | 12 | 0.0132 (≈ 0.0322 µM) | 0.0112 (≈ 0.0274 µM) | 0.012 (≈ 0.0293 µM) | 0.044 (≈ 0.107 µM) |
| Cc1c(C(=O)OCC#CCN2CCN(c3ccc(Br)cc3C#N)CC2)sc2ncnc(N3CCCCC3)c12 | 16 | 14 | 15 | 136 (≈ 230 µM) | 96 | 99.1 | 51.2 | Dose-dependent effect | 40.9 (≈ 68.8 µM) | 76.18 | 13 | 0.0124 (≈ 0.0209 µM) | 0.0186 (≈ 0.0313 µM) | 0.0244 (≈ 0.0411 µM) | 0.0112 (≈ 0.0189 µM) |
| COc1cccc(N2CCN(CC#CCOC(=O)c3sc4ncnc(N5CCOCC5)c4c3C)CC2)c1 | 16 | 14 | 14 | 161 (≈ 308 µM) | 114 | 98.1 | 50 | Dose-dependent effect | 38.4 (≈ 73.6 µM) | 76.78 | 12 | 0.0311 (≈ 0.0596 µM) | 0.012 (≈ 0.023 µM) | 0.501 (≈ 0.96 µM) | 0.0124 (≈ 0.0238 µM) |
| Cc1c(-c2nnc(-c3ccccc3)o2)sc2ncnc(N3CCCCC3)c12 | 14 | 10 | 13 | 146 (≈ 387 µM) | 100 | 99.2 | 54.1 | Dose-dependent effect | 22.1 (≈ 58.6 µM) | 76.88 | 11 | 0.0125 (≈ 0.0331 µM) | 0.0128 (≈ 0.0339 µM) | 0.0132 (≈ 0.035 µM) | 0.0144 (≈ 0.0381 µM) |
| Cc1c(-c2nnc(-c3ccc([N+](=O)[O-])cc3)o2)sc2ncnc(N3CCCCC3)c12 | 18 | 14 | 17 | 145 (≈ 343 µM) | 125 | 99 | 49.9 | Dose-dependent effect | 11.9 (≈ 28.1 µM) | 74.78 | 8 | 0.044 (≈ 0.104 µM) | 0.0641 (≈ 0.152 µM) | 0.0361 (≈ 0.0854 µM) | 0.0382 (≈ 0.0904 µM) |
| Cc1c(-c2nnc(-c3ccccc3)o2)sc2ncnc(N3CCOCC3)c12 | 12 | 16 | 11 | 200 (≈ 527 µM) | 160 | 99.5 | 50.4 | Dose-dependent effect | 10.6 (≈ 27.9 µM) | 76.18 | 16 | 0.0412 (≈ 0.109 µM) | 0.0366 (≈ 0.0965 µM) | 0.0211 (≈ 0.0556 µM) | 0.0186 (≈ 0.049 µM) |
| GENTAMICIN |  |  |  |  |  |  |  |  |  |  |  | 0.0422 | 0.0386 | 0.0212 | 0.0242 |
| COc1ccc(N2CCN(CC#CCOC(=O)c3sc4ncnc(N5CCCCC5)c4c3C)CC2)cc1 | 11 | 11 | 10 | 140 (≈ 269 µM) | 80 | 99.4 | 49.4 | Dose-dependent effect | 35.3 (≈ 67.9 µM) | 76.16 | 13 | 0.313 (≈ 0.602 µM) | 0.0158 (≈ 0.0304 µM) | 0.622 (≈ 1.2 µM) | 0.0614 (≈ 0.118 µM) |
| Cc1ccc(-c2nnc(-c3sc4ncnc(N5CCCCC5)c4c3C)o2)cc1 | 17 | 11 | 12 | 161 (≈ 411 µM) | 110 | 99.5 | 49.2 | Dose-dependent effect | 28.2 (≈ 72 µM) | 74.98 | 14 | 0.0404 (≈ 0.103 µM) | 0.0142 (≈ 0.0363 µM) | 0.0138 (≈ 0.0352 µM) | 0.0201 (≈ 0.0513 µM) |
| Cc1c(C(=O)OCC#CCN2CCN(c3cc(C4CC4)ccc3C#N)CC2)sc2ncnc(N3CCCCC3)c12 | 16 | 17 | 17 | 148 (≈ 267 µM) | 110 | 99.6 | 50.1 | Dose-dependent effect | 16.2 (≈ 29.2 µM) | 75.14 | 14 | 0.0422 (≈ 0.0761 µM) | 0.0581 (≈ 0.105 µM) | 0.521 (≈ 0.939 µM) | 0.0686 (≈ 0.124 µM) |
| COc1cccc(N2CCN(CC#CCOC(=O)c3sc4ncnc(N5CCCCC5)c4c3C)CC2)c1 | 13 | 13 | 14 | 144 (≈ 278 µM) | 96 | 98.2 | 51 | Dose-dependent effect | 40.4 (≈ 77.8 µM) | 75.08 | 10 | 0.0244 (≈ 0.047 µM) | 0.521 (≈ 1 µM) | 0.0384 (≈ 0.0739 µM) | 0.0842 (≈ 0.162 µM) |
| Cc1c(-c2nnc(-c3ccc([N+](=O)[O-])cc3)o2)sc2ncnc(N3CCOCC3)c12 | 13 | 16 | 16 | 94.2 (≈ 222 µM) | 80 | 99.2 | 49.2 | Dose-dependent effect | 16.2 (≈ 38.1 µM) | 75.11 | 16 | 0.046 (≈ 0.108 µM) | 0.0381 (≈ 0.0898 µM) | 0.0382 (≈ 0.09 µM) | 0.0266 (≈ 0.0627 µM) |

From ChEMBL document CHEMBL4219188, “Design, synthesis, neuroprotective, antibacterial activities and docking studies of novel thieno[2,3-d]pyrimidine-alkyne Mannich base and oxadiazole hybrids” (Bioorg Med Chem Lett, 2018)
